In patent publication US20080269213A1, “8-Hydroxyquinoline compounds and methods thereof” (Wyeth, priority 2006, published 2008):
Several values for one entry are separate records, joined by “and”; a condition that tells them apart may be missing. Equal values may be shown once. Read-outs that look alike come from different tables or passages of the source.

Columns and labels:
[1] = biological target: T1, recombinant human Aggrecanase-2 Agg2-Phe628 (Homo sapiens, UniProt Q9UNA0); assay: Aggrecanase 2 in vitro enzyme assay (Agg-2 FRET, quenched fluorescent peptide substrate); assay type: biochemical; parameters: purified recombinant human Aggrecanase-2 Agg2-Phe628 (MW=41,737); This is a truncated form of full-length human aggrecanase-2; made in house; host or cells: CHO cells
T1 sequence (Q9UNA0 262-628 limits assumed): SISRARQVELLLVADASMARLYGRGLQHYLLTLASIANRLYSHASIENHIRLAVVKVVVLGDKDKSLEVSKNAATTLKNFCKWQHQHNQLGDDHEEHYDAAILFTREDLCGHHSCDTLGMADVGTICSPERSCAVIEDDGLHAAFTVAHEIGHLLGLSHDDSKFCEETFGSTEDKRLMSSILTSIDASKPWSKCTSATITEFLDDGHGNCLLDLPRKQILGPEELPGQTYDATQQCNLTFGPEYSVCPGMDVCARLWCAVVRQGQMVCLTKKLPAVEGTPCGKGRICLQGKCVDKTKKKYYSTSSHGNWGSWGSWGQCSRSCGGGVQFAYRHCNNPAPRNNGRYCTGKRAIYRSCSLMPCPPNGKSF
Summary of the method: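 Kinetic fluorescence (λex 340, λem 420 nm) monitored over 40 min at 30 °C after adding 25 μM final Abz/Dnp brevican-based quenched peptide. Enzyme: recombinant truncated human Agg2-Phe628 from CHO, 0.5 μg/ml final, mixed with inhibitor first; buffer HEPES pH 7.5 with NaCl, CaCl2, CHAPS, glycerol; compounds in duplicate.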

Agg-1 = biological target: T2, Agg-1 (Homo sapiens, UniProt O75173); assay: Agg-1 FRET assay; assay type: biochemical; details: for inhibition at […]: @ 1200 nM; for inhibition at 22 µM: @ 22000 nM; for IC50: read-out: Agg1 IC50; for inhibition at 22.2 µM: @ 22200 nM
T2 sequence (O75173 213-837): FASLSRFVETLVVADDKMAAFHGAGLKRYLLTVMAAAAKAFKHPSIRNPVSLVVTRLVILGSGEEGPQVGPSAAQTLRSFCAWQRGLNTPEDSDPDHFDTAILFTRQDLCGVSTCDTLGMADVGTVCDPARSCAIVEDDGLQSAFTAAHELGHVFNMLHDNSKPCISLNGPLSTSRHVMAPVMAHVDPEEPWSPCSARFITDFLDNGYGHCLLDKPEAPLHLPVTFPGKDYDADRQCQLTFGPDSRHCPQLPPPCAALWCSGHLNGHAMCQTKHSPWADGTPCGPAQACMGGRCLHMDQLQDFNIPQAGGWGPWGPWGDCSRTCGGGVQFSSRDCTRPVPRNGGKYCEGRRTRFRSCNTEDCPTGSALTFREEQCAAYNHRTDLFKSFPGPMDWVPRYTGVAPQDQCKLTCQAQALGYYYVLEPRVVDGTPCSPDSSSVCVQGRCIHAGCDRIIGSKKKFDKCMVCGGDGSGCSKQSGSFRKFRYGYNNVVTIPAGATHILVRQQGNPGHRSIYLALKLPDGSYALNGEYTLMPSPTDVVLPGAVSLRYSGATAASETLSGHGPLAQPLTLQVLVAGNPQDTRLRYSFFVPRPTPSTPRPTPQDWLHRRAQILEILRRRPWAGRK
From the text: The Agg-1/Agg-2 FRET data for N-[(8-hydroxyquinolin-2-yl)(phenyl)methyl]-2-phenoxyacetamide and 2-{[(phenoxyacetyl)amino](phenyl)methyl}quinolin-8-yl phenoxyacetate is presented in Table 1.

[2] = read-out: Agg-2 FRET Median IC50

| IC50 ([1]; read-out: Agg2 IC50) [nM] | IC50 [1, 2] | Structure (SMILES) | other results |
| --- | --- | --- | --- |
| 2530 | 2530 nM | O=C(Cc1ccccc1)NC(c1ccccc1)c1cc(Cl)c2cccnc2c1O (stereo not drawn) [N-[(5-chloro-8-hydroxyquinolin-7-yl)(phenyl)methyl]-2-phenylacetamide] | inhibition at […] (Agg-1; read-out: Agg1 %): 20% |
|  |  | O=C(COc1ccccc1)NC(c1cc(Cl)c2cccnc2c1O)c1ccnc2ccccc12 (stereo not drawn) [N-[(5-chloro-8-hydroxyquinolin-7-yl)(quinolin-4-yl)methyl]-2-phenoxyacetamide] | inhibition at 2.8 µM ([1]; @ 2800 nM): 45%; inhibition at 11 µM (Agg-1; @ 11000 nM, read-out: Agg1 %): 34% |
| 3500 | 3520 nM | O=C(COc1ccccc1)NC(c1cc(Cl)c2cccnc2c1O)c1cccc2ncccc12 (stereo not drawn) [N-[(5-chloro-8-hydroxyquinolin-7-yl)(quinolin-5-yl)methyl]-2-phenoxyacetamide] | inhibition at 22 µM (Agg-1; read-out: Agg1 %): 46% |
| 2200 |  | O=C(COc1ccccc1)NC(c1cc(Cl)c2cccnc2c1O)c1cccc2cccnc12 (stereo not drawn) [N-[(5-chloro-8-hydroxyquinolin-7-yl)(quinolin-8-yl)methyl]-2-phenoxyacetamide] | inhibition at 22 µM (Agg-1; read-out: Agg1 %): 55% |
| 1370 | 1370 nM | O=C(COc1ccccc1)NC(c1cc2c(cc1Cl)OCO2)c1cc(Cl)c2cccnc2c1O (stereo not drawn) [N-[(6-chloro-1,3-benzodioxol-5-yl)(5-chloro-8-hydroxyquinolin-7-yl)methyl]-2-phenoxyacetamide] | IC50 (Agg-1): > 30000 nM |
| 10500 | 10500 nM | O=C(COc1ccccc1)NC(c1ccccc1)c1cc(N2CCCC2)c2cccnc2c1O (stereo not drawn) [N-[(8-hydroxy-5-pyrrolidin-1-ylquinolin-7-yl)(phenyl)methyl]-2-phenoxyacetamide] | inhibition at 22.2 µM (Agg-1; read-out: Agg1 %): 49% |
| 970 | 970 nM and 1220 nM | O=C(COc1ccccc1)N[C@@H](c1ccccc1Cl)c1cc(Cl)c2cccnc2c1O [N-[(R)-(5-chloro-8-hydroxyquinolin-7-yl)(2-chlorophenyl)methyl]-2-phenoxyacetamide] | inhibition at 22.2 µM (Agg-1; read-out: Agg1 %): 49% |
| 876 | 876 nM and 1340 nM | O=C(COc1ccccc1)N[C@H](c1ccccc1Cl)c1cc(Cl)c2cccnc2c1O [N-[(S)-(5-chloro-8-hydroxyquinolin-7-yl)(2-chlorophenyl)methyl]-2-phenoxyacetamide] | inhibition at 22.2 µM (Agg-1; read-out: Agg1 %): 54% |
| 1040 |  | COc1ccc(C(NC(=O)COc2ccccc2)c2cc(Cl)c3cccnc3c2O)cc1OCc1ccccc1 (stereo not drawn) [N-[[3-(benzyloxy)-4-methoxyphenyl](5-chloro-8-hydroxyquinolin-7-yl)methyl]-2-phenoxyacetamide] | inhibition at 7.5 µM (Agg-1; @ 7500 nM, read-out: Agg1 %): 54% |
|  |  | COc1ccc(C(NC(=O)Cc2ccccc2)c2cc(Cl)c3cccnc3c2O)cc1OCc1ccccc1 (stereo not drawn) [N-[[3-(benzyloxy)-4-methoxyphenyl](5-chloro-8-hydroxyquinolin-7-yl)methyl]-2-phenylacetamide] | inhibition at […] ([1]; @ 1200 nM): 47%; inhibition at […] (Agg-1; read-out: Agg1 %): 36% |
|  |  | O=C(COc1ccccc1)NC(c1cccc(OCc2ccccc2)c1)c1cc(Cl)c2cccnc2c1O (stereo not drawn) [N-[[3-(benzyloxy)phenyl](5-chloro-8-hydroxyquinolin-7-yl)methyl]-2-phenoxyacetamide] | inhibition at 3.7 µM ([1]; @ 3700 nM): 48%; inhibition at 22.2 µM (Agg-1; read-out: Agg1 %): 47% |
| 4400 |  | O=C(COc1ccccc1)NC(c1ccc(OCc2ccccc2)cc1)c1cc(Cl)c2cccnc2c1O (stereo not drawn) [N-[[4-(benzyloxy)phenyl](5-chloro-8-hydroxyquinolin-7-yl)methyl]-2-phenoxyacetamide] | IC50 (Agg-1): > 67000 nM |
| 33300 to 100000 |  | CN(C)c1cc(C(NC(=O)COc2ccccc2)c2ccccc2)c(O)c2ncccc12 (stereo not drawn) [N-[[5-(dimethylamino)-8-hydroxyquinolin-7-yl](phenyl)methyl]-2-phenoxyacetamide] | Agg-2 FRET Median PCT INHIB ([1]; concentration not given): 58%; IC50 (Agg-1): ~25000 nM |
| 1640 | 1640 nM | O=C(COc1ccccc1)NC(c1ccccc1)c1cc(-n2cccc2)c2cccnc2c1O (stereo not drawn) [N-[[8-hydroxy-5-(1H-pyrrol-1-yl)quinolin-7-yl](phenyl)methyl]-2-phenoxyacetamide] | inhibition at 200 µM (Agg-1; @ 200000 nM, read-out: Agg1 %): 54% |
